From US20260060960A1, “GAMMA-SECRETASE INHIBITORS FOR USE IN THE TREATMENT OF INHERITED EPIDERMOLYSIS BULLOSA” (OSPEDALE PEDIATRICO BAMBINO GESU', priority 2022, published 2026)
d = 2'-deoxy (DNA); r = 2'-OH (RNA)

What was measured:
Format in all cases: cell-based, human
JAG1 = assay: Immunoblotting of JAG1 after siRNA transfection (silencing efficiency); conditions: RDEB-FBs; for JAG1 expression levels (immunoblotting): 48 h after transfection, absence of TGF-β1, vs Scramble
Description: Transfection of short interfering RNAs targeting Jagged 1. Two candidate short interfering RNA (siRNA) sequences complementary to different regions of the human JAG1 mRNA, si-JAG1-1 and si-JAG1-2, were chosen to be functionally evaluated in the context of transfection experiments. siJAG1-1 and siJAG1-2 sequences are indicated below: 5′-GAAUGUGAGGCCAAACCUU[dT][dT]-3′ (SEQ ID NO:1) (si-JAG1-1, cod. SASI_Hs01_00100441) and 5′-CCUGUAACAUAGCCCGAAA[dT][dT]-3′ (SEQ ID NO:2) (si-JAG1-2, cod. SASI_Hs01_00100442). Both siRNAs were purchased from Merck (Merck, Darmstadt, Germany). Lipofectamine 2000 (Thermo Fisher Scientific, Waltham, MA, USA) was used to transfect siRNAs, following manufacturer's protocol. After 48 h, the silencing efficiency of the two candidate siRNAs was assessed by immunoblotting (IB) (FIG. 2). […] Accordingly, si-JAG1-2, throughout the text indicated as si-JAG1, was selected for all downstream silencing experiments. The MISSION® siRNA Universal Negative Control #1 (Merck) was used as negative control for siRNA transfections.
(§1) Whole-cell lysates were obtained in radioimmunoprecipitation assay (RIPA) buffer (Sigma-Aldrich) supplemented with phosphatase- and protease inhibitors (Merck). Different amounts of protein lysates were run under reducing conditions by using 4-12% gradient precast gels (Thermo Fisher Scientific) or hand-casting polyacrylamide gels (4-8%), depending on the protein to be assayed. Amersham™ Protran® Premium nitrocellulose membranes (pore size 0.2 μm) (Merck) were immunoblotted with primary antibodies indicated in Table 3 and incubated with horseradish peroxidase-linked secondary antibodies.

α-SMA, TAGLN, CNN1, JAG1 = assay: Immunoblotting of myofibroblast/fibrotic markers in RDEB fibroblasts; conditions: RDEB-FBs vs Scramble, treated or not with TGF-β1
Description: as §1
Detection was performed using Cytiva ECL™ Prime Western Blotting System (Merck) or SuperSignal West Femto (Thermo Fisher Scientific), depending on the protein to be assayed. Antibody against Notch1 (all forms; clone bTAN20) was obtained from the Developmental Studies Hybridoma Bank (DSHB) at the University of Iowa (DSHB, Iowa City, IA, USA). GAPDH (clone 14C10), Jagged1 (clone 28H8) and NOTCH1 intracellular domain (clone D3B8) were obtained from Cell Signaling (Cell Signaling Technology Inc., Beverly, MA, USA). Antibodies against TAGLN (clone #859112) and CNN1 (clone #836701) were from R&D Systems (R&D Systems, Inc. Minneapolis, MN, USA). Antibody against α-SMA (clone 1A4) was purchased from Sigma-Aldrich. Antibody against lamin B1 (LMNB1) was from Abcam (Cambridge, UK). […]

[1] = test system: primary fibroblasts from RDEB patients (RDEB-FBs); assay: Collagen lattice contraction (CLC) assay; conditions: RDEB-FBs vs Scramble siRNA, with and without TGF-β1
Protocol: RDEB-FBs (5×10^5 cells) were mixed in a collagen buffer and seeded into 12-well plates as previously described. After gelation, fibroblast-populated collagen lattices were detached from the wells and left floating. RDEB-FBs were treated with 20 μM of DAPT and PF-03804014 in DMEM containing 0.1% BSA, in the presence or absence of TGF-β1 at 2 ng/mL, as contraction booster. JAG1-silenced RDEB-FBs were embedded in collagen lattices 24 h after siRNA transfection. In both cases, images were acquired with ChemiDoc™ XRS+ System (Bio-Rad, Hercules, CA, USA) at the detachment of collagen lattices from the wells (time 0, TO) and after 48 h. Gel areas were measured by ImageJ software and photos at TO were used as references.

Substance | JAG1 expression levels (immunoblotting) (JAG1) | protein levels of α-SMA, CNN1, TAGLN, JAG1, NOTCH FL after JAG1 silencing (α-SMA, TAGLN, CNN1, JAG1) | cell ability to contract type I collagen matrix after JAG1 silencing [1] | JAG1 protein levels (immunoblotting) (JAG1; presence of TGF-β1 2 ng/mL for 24 h, compared with si-JAG1-1)
si-JAG1-1: short interfering RNA targeting human JAG1 mRNA, 5′-GAAUGUGAGGCCAAACCUU[dT][dT]-3′ (SEQ ID NO:1) (sense GAAUGUGAGGCCAAACCUUTT; sugars from the 5' end r19 d2, backbone and methylation of C not given here) | able to reduce JAG1 expression levels |  |  | 
si-JAG1-2: short interfering RNA targeting human JAG1 mRNA, 5′-CCUGUAACAUAGCCCGAAA[dT][dT]-3′ (SEQ ID NO:2); indicated as si-JAG1 throughout (sense CCUGUAACAUAGCCCGAAATT; sugars from the 5' end r19 d2, backbone and methylation of C not given here) | able to reduce JAG1 expression levels | significant reduction of α-SMA, CNN1, TAGLN, JAG1 and unprocessed NOTCH1 receptor | reduced | major reduction of JAG1 protein levels
